Columns and labels:
[1] = Dissociation kinetics of Mn(II) complexes, transmetalation with Zn(II) (T2 relaxation); type: physicochemical
Procedure: The transmetalation reaction of MnL2 and MnL3 (1.4 mM) was monitored in the presence of 10, 20, 30, and 40 mol equiv of Zn(II) ions, by measuring water proton T2 relaxation times (60 MHz) as a function of time at 25 °C and in 0.15 M NaCl, in the pH range 4.9–6.0 (4.9, 5.0, 5.2, 5.5, and 6.0). To control pH, 50 mM N-methyl-piperazine (pH 4.9–5.5) or 50 mM MES (2-(4-morpholino)ethane-sulfonic acid) buffer (pH 5.7–6.0) was used. Transmetalation of MnL2 (0.3 mM) was also investigated in the presence of 10, 20, 30, and 40 mol equiv of Cu(II) ions, by monitoring the UV–vis absorbance at 274.0 nm as a function of time at 25 °C and in 0.15 M NaCl, in the pH range 4.7–5.0 (in 75 mM 1,4-dimethyl piperazine (DMP) buffer). No oxidation of the samples was observed. The program OriginPro 9 was used for the fitting of experimental data.
The dissociation kinetics was followed through monitoring Mn(II) release by water proton T2 measurements, at pH […], in the presence of 10- to 40-fold excess of Zn(II) and through UV–vis measurements in the presence of 10- to 40-fold excess of Cu(II) at pH 4.7–5.0 (only for MnL2). The observed dissociation rate constants, kobs, increase with increasing H^+ ion concentration (Figures 4, left and S20). They remain independent of Zn(II) concentration (Figures S18 and S19), but do show dependence on Cu(II) concentration (Figure S21).
In excess of the exchanging metal ion, the reaction is of pseudo-first order, and the rate is proportional to the total MnL2 or MnL3 concentration (eq 1), where kobs is the pseudo-first-order rate constant. [drawing 4] 1 In general, different dissociation pathways can coexist, implying the participation of protons and/or the exchanging metal ion,[47] as illustrated in Figure 5.
Based on this scheme, the overall rate for either Zn(II) or Cu(II) transmetalation can be given by eq 2, where M = Zn^2+ or Cu^2+ (for clarity, charges of the complexes are omitted). [drawing 5] 2 Here, the first and second terms correspond to the spontaneous dissociation of the nonprotonated and the monoprotonated complexes, respectively, the third term describes the proton-assisted dissociation of the monoprotonated complex, and the last two terms refer to the spontaneous dissociation of the dinuclear complex and metal-assisted dissociation of the monoprotonated MnL2 or MnL3 complex. [MnL]tot describes the total concentration of Mn(II) chelates ([MnL]tot = [MnL] + [MnHL] + [ZnLMn]). Since no obvious Zn(II) dependence (for any of the two systems) was observed, only the spontaneous and proton-assisted dissociation pathways were taken into consideration. Consequently, the observed rate constants can be expressed as in eq 3 with k0 = kMnL, k1 = kMnHL·KMnHL, and k2 = ^HkMnHL·KMnHL. [drawing 6] 3 The kobs rate constants were fitted to eq 3, and the calculated parameters are listed in Table 5 for the Zn(II) exchange. During the fitting procedure, KMnHL was fixed to the value obtained from the pH-potentiometric titrations.

[2] = 1H relaxivity (relaxometry, NMRD profiles); type: physicochemical; conditions: for r1 (relaxivity): 20 MHz, 0.47 T
Procedure: At 60 MHz, ^1H longitudinal (T1) and transverse (T2) relaxation times were measured with a Bruker Minispec MQ-60 NMR analyzer. The temperature was set to 25.0 °C and controlled with a circulating water bath. T1 and T2 values were determined, respectively, by using the inversion recovery method (180−τ–90°) and the Carl–Purcell–Meiboom–Gill (CPMG) spin–echo pulse sequence. […]
^1H NMRD profiles on aqueous solutions of MnL2 (cMn2+ = 0.98 mM; pH = 7.22) and MnL3 (cMn2+ = 0.96 mM; pH = 7.20) were recorded at 25 and 37 °C on a SMARTracer Fast Field Cycling NMR relaxometer (Stelar; 0.00024–0.24 T, 0.01–10 MHz ^1H Larmor frequency) and a WP80 NMR electromagnet adapted to variable-field measurements (Bruker; 0.47–1.88 T, 20–80 MHz ^1H Larmor frequency). The temperature was maintained by a gas flow and monitored by a VTC91 temperature control unit based on previous calibration with a Pt resistance temperature probe.

[3] = Water solubility of complex samples; type: physicochemical; conditions: at the concentrations required for the measurements
Source text: MnL2 and MnL3 complex samples for kinetic and relaxometric studies have been prepared by mixing MnCl2 and L2 or L3 solutions of known concentrations in a 1:1.05 ratio and by adjusting the pH to 7.4. Mn(II) concentration in each sample was verified by bulk magnetic susceptibility measurements.

[4] = fixed during the fitting procedure ref 28; cited from earlier work
[5] = Zn(II) transmetalation, 25 °C, 0.15 M NaCl, pH 4.9–6.0

| Structure (SMILES) | dissociation half-life t1/2 ([1]; Mn(II) complex, t1/2 = ln 2/kobs calculated for pH 7.4, Zn(II)) [min] | k0 (spontaneous dissociation of the nonprotonated complex) [1, 5] | k2 (proton-assisted dissociation of the monoprotonated complex) [1, 5] | relaxivity (constant between pH 7 and 11) ([2]; 1.41 T and 25 °C, pH 7 to 11) [mM^–1 s^–1] | r1 (relaxivity) ([2]; 25 °C) [mM^–1 s^–1] | r1 (relaxivity) ([2]; 25 °C, listed as [Mn(L2)(H2O)]^+) [mM^–1 s^–1] | r1 (relaxivity) ([2]; 37 °C) [mM^–1 s^–1] | water solubility [3] | AO/ℏ (scalar coupling constant) [4] | r1 (relaxivity) ([2]; 25 °C, listed as [Mn(L3)(H2O)]^+) [mM^–1 s^–1] |
| --- | --- | --- | --- | --- | --- | --- | --- | --- | --- | --- |
| O.[Mn+2].c1ccc(CN2CCOCCOCCNCc3cccc(n3)C2)nc1 [MnL2] | 10.4 | (1.1 ± 0.3) × 10^–3 s^–1 | (4.5 ± 0.8) × 10^7 M^–2 s^–1 | 2.62 | ~2.5 | 2.49 | 1.98 | water-soluble | 38.6 ^e 10^6 rad s^–1 | – |
| O.[Mn+2].c1cc2nc(c1)CN(Cc1nc3ccccc3[nH]1)CCOCCOCCNC2 [MnL3] | – | (1.9 ± 0.3) × 10^–3 s^–1 | – | – | ~2.5 | – | 2.24 | water-soluble | 38.6 ^e 10^6 rad s^–1 | 2.77 |

Source: PMC12042267, “Expanding the Family of Monosubstituted 15-Membered Pyridine-Based Macrocyclic Ligands for Mn(II) Complexation in the Context of MRI” (Inorganic Chemistry, 2025)
